The test deals with T1, PPARγ (Homo sapiens, UniProt P37231).
T1 construct: made in house
T1 sequence (P37231 1-505): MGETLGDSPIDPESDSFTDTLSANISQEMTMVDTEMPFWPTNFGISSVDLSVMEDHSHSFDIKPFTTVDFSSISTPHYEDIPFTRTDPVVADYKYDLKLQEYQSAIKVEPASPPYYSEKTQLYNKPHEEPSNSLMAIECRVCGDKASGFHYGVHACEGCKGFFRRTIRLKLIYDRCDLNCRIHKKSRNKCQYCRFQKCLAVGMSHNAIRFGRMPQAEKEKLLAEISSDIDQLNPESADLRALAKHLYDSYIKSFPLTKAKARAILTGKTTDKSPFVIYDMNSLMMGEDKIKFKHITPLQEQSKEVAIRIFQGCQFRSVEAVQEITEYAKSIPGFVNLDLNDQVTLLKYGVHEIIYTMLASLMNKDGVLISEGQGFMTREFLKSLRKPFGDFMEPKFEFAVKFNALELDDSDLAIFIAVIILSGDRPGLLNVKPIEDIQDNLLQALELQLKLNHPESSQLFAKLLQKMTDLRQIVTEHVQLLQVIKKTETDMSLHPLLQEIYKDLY
Put plainly: PPARγ ligand binding assay utilizing [3H]-BRL 49653 as the radioligand (filtration). To be noted: concentration required to reduce by 50% the specific binding of [3H]-BRL 49653. The gist of the method: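 Displacement of 10 nM [3H]-BRL 49653 from PPARγ-GST fusion protein in Tris-HCl pH 8.0 buffer with KCl, DTT, BSA and NP-40, 15 min incubation, then glutathione-bead capture for 1 h. Bound radioactivity counted after filtration washes; IC50 is concentration giving 50% loss of specific binding, reported in ranges.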

As usually defined, the IC50 is the point on the concentration scale where inhibition reaches its midpoint. Compound `Cc1nc(NS(=O)(=O)c2ccc(C(F)(F)F)cc2Cl)ccc1Sc1ccc(S(=O)(=O)N2CCOCC2)cc1` [Compound 103, 2-Chloro-N-{6-methyl-5-[4-(morpholine-4-sulfonyl) -phenylsulfanyl]-pyridin-2-yl}-4-trifluoromethyl-benzenesulfonamide] came in with a 50% inhibitory concentration (IC50) of under 1000 nM.
Take `CCCC(=O)c1nc(NS(=O)(=O)c2ccc(C(F)(F)F)cc2Cl)ccc1Sc1ccc(S(=O)(=O)N2CCCCC2)cc1` [Compound 81, N-{6-Butyryl-5-[4-(piperidine-1-sulfonyl)-phenylsulfanyl]-pyridin-2-yl}-2-chloro-4-trifluoromethyl-benzenesulfonamide]: the IC50 was under 1000 nM.
In turn, `CCCNc1nc(NS(=O)(=O)c2ccc(Cl)cc2Cl)ncc1Sc1ccc(S(=O)(=O)N2CCCCC2)cc1` [Compound 12, 2,4-Dichloro-N-{5-[4-(piperidine-1-sulfonyl)-phenylsulfanyl]-4-propylamino-pyrimidin-2-yl}-benzenesulfonamide] registered an IC50 of under 1000 nM.
The result for `CCCCc1nc(NS(=O)(=O)c2ccc(OC)cc2)ncc1Sc1ccc(S(=O)(=O)N2CCCCC2)cc1` [Compound 45, N-{4-Butyl-5-[4-(piperidine-1-sulfonyl)-phenylsulfanyl]-pyrimidin-2-yl}-4-methoxy-benzenesulfonamide] reads under 1000 nM; that for `CCC(=O)c1nc(NS(=O)(=O)c2ccc(Cl)cc2Cl)ccc1Sc1ccc(S(=O)(=O)N2CCCCC2)cc1` [Compound 84, 2,4-Dichloro-N-{5-[4-(piperidine-1-sulfonyl)-phenylsulfanyl]-6-propionyl-pyridin-2-yl}-benzenesulfonamide], under 1000 nM; that for `CC(C)CC(=O)c1nc(NS(=O)(=O)c2ccc(Cl)cc2Cl)ccc1Sc1ccc(S(=O)(=O)N2CCCCC2)cc1` [Compound 83, 2,4-Dichloro-N-{6-(3-methyl-butyryl)-5-[4-(piperidine-1-sulfonyl)-phenylsulfanyl]-pyridin-2-yl}-benzenesulfonamide], under 1000 nM.
The result for `Cc1nc(NS(=O)(=O)c2ccc(Cl)cc2Cl)ncc1Oc1ccc(S(=O)(=O)N2CCOCC2)cc1` [Compound 54, 2,4-Dichloro-N-{4-methyl-5-[4-(morpholine-4-sulfonyl) -phenoxy]-pyrimidin-2-yl}-benzenesulfonamide] reads under 30000 nM.
The result for `O=C(c1nc(NS(=O)(=O)c2ccc(Cl)cc2Cl)ccc1Sc1ccc(S(=O)(=O)N2CCCCC2)cc1)C1CC1` [Compound 82, 2,4-Dichloro-N-{6-cyclopropanecarbonyl-5-[4-(piperidine-1-sulfonyl)-phenylsulfanyl]-pyridin-2-yl}-benzenesulfonamide] reads under 1000 nM.
Take `CCCCc1nc(NS(=O)(=O)c2ccc(Cl)cc2Cl)ncc1Sc1ccc(S(=O)(=O)N2CCCCC2)cc1` [Compound 43, N-{4-Butyl-5-[4-(piperidine-1-sulfonyl)-phenylsulfanyl]-pyrimidin-2-yl}-2,4-dichloro-benzenesulfonamide]: the IC50 was under 1000 nM.
Next, `CCCCc1cc(NS(=O)(=O)c2ccc(C(F)(F)F)cc2Cl)nnc1Sc1ccc(S(=O)(=O)N2CCOCC2)cc1` [Compound 130, 3-(2′-chloro-4′-trifluoromethyl)phenylsulfonylamino-5-n-butyl-6-(4″-N-morpholinesulfonyl)phenylthiopyridazine]: under 1000 nM.
Next, `CCCCc1nc(NS(=O)(=O)c2ccc(Cl)cc2Cl)ccc1Sc1ccc(S(=O)(=O)N2CCOCC2)cc1` [Compound 124, N-{6-Butyl-5-[4-(morpholine-4-sulfonyl)-phenylsulfanyl]-pyridin-2-yl}-2,4-dichloro-benzenesulfonamide]: under 1000 nM; `CCCC(=O)c1nc(NS(=O)(=O)c2ccc(Cl)cc2Cl)ccc1Sc1ccc(S(=O)(=O)C2CCCC2)cc1` [Compound 112, N-[6-Butyryl-5-(4-cyclopentanesulfonyl-phenylsulfanyl)-pyridin-2-yl]-2,4-dichloro-benzenesulfonamide]: under 1000 nM.
For `CC(C)CC(=O)c1nc(NS(=O)(=O)c2ccc(Cl)cc2Cl)ccc1Sc1ccc(S(=O)(=O)N2CCOCC2)cc1` [Compound 80, 2,4-Dichloro-N-{6-(3-methyl-butyryl)-5-[4-(morpholine-4-sulfonyl)-phenylsulfanyl]-pyridin-2-yl}-benzenesulfonamide], the IC50 is under 1000 nM.
In the case of `Cc1nc(NS(=O)(=O)c2ccc(Cl)cc2Cl)ncc1Oc1ccc(Cl)c(Cl)c1` [Compound 60, 2,4-Dichloro-N-[5-(3,4-dichloro-phenoxy)-4-methyl-pyrimidin-2-yl]-benzenesulfonamide], the IC50 was under 10000 nM.
Next, `O=S(=O)(Nc1ccc(Sc2ccc(S(=O)(=O)N3CCCCC3)cc2)cn1)c1ccc(Cl)cc1Cl` [Compound 68, 2,4-Dichloro-N-{5-[4-(piperidine-1-sulfonyl)-phenylsulfanyl]-pyridin-2-yl}-benzenesulfonamide]: under 1000 nM; `CCCNc1nc(NS(=O)(=O)c2ccc(Cl)cc2Cl)ncc1Oc1ccc(Cl)c(Cl)c1` [Compound 27, 2,4-Dichloro-N-[5-(3,4-dichloro-phenoxy)-4-propylamino-pyrimidin-2-yl]-benzenesulfonamide]: under 10000 nM.
